Data as given in patent publication US20260216197A1, “WRN HELICASE INHIBITOR” (SUZHOU PUHE BIOPHARMA CO., LTD., priority 2022, published 2026).

Legend:
[1] = system: SW 48 (MSI-H) colorectal cancer cells; test: In vivo pharmacodynamic assay, SW48 xenograft in nude mice; parameters: species or system BALB/c nude mice; details: 50 mg/kg, QD, oral
Description: In vivo pharmacodynamic assay in BALB/c nude mice. Details are as follows:
SW 48 (MSI-H) colorectal cancer cells were cultured (L15 medium with 10% fetal bovine serum), and then inoculated into 6-8-week old female BALB/c nude mice (weighing about 20 g), wherein all mice were inoculated subcutaneously. The mice were cultured in an SPF-grade experimental environment, and all mice had free access to commercially certified standard diets. When the average tumor volume of the mice grew to about 150 mm^3, the test compound was orally administered daily. The dosage was as follows: blank group vehicle (10% HP-β-CD aqueous solution, pH-7). The dosage of the administration group was 120 mg/kg, 50 mg/kg, or 20 mg/kg, once a day. The tumor volume was measured with a two-dimensional caliper three times a week, and the animals were weighed every day. […] The tumor volume was calculated using the formula: V=½a*b^2, where a represents the long diameter of the tumor, and b represents the short diameter of the tumor.

WRN helicase = WRN helicase (Homo sapiens, UniProt Q14191); test: WRN helicase hydrolysis/unwinding of double-stranded DNA (fluorescence); format: biochemical
In short: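 Human WRN helicase preincubated 30 min in the dark with compound (top final concentration 10 μM, 4-fold dilutions). Reaction started with 19-bp double-stranded DNA labelled 3′-TAMRA/5′-BHQ2, run 60 min at room temperature; IC50 from fluorescence change (Ex530/Em590) versus DMSO blank.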

[2] = Liver microsome stability test; format: in vitro ADME; details: human liver microsomes 0.5 mg/mL, compound 1 μM, NADPH 1 mM, 60 minutes
[3] = Caco-2 membrane permeability assay; format: in vitro ADME; details: human; Caco-2, apical pH 6.5, basolateral pH 7.4
Description: The membrane permeability of the molecule of the present disclosure was evaluated. Samples were analyzed by LC-MS to estimate the apparent permeability coefficient (Papp) of the compounds across Caco-2 cell monolayers, with the apical chamber at pH 6.5 and the basolateral chamber at pH 7.4. Active efflux transport of compounds can be blocked using inhibitors of P-gp efflux transporter, BCRP, and MRP2 (50 μM quinidine, 30 μM benzbromarone, and 20 μM sulfasalazine). The data were used to determine apparent permeability (Papp).
[formula] • where VA is the volume of the receptor pore (in mL), Area is the surface area of the membrane (0.143 cm^2 for Transwell-96 well permeable scaffolds), and time is the total transport time (in seconds).

[4] = system: MSS colorectal cancer HT-29 cell line; test: 2D anti-proliferative activity, MSS HT-29 cells (CTG, 5 days); format: cell-based; details: Homo sapiens, 120 h
In short: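 HT-29 cells in McCoy's 5A with 10% FBS exposed to compound for 5 days at 37° C, 5% CO2 in 384-well format. Viable cells read as ATP luminescence (CellTiter-Glo) after 30 min.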

WRN helicase, sequence (Q14191 whole entry): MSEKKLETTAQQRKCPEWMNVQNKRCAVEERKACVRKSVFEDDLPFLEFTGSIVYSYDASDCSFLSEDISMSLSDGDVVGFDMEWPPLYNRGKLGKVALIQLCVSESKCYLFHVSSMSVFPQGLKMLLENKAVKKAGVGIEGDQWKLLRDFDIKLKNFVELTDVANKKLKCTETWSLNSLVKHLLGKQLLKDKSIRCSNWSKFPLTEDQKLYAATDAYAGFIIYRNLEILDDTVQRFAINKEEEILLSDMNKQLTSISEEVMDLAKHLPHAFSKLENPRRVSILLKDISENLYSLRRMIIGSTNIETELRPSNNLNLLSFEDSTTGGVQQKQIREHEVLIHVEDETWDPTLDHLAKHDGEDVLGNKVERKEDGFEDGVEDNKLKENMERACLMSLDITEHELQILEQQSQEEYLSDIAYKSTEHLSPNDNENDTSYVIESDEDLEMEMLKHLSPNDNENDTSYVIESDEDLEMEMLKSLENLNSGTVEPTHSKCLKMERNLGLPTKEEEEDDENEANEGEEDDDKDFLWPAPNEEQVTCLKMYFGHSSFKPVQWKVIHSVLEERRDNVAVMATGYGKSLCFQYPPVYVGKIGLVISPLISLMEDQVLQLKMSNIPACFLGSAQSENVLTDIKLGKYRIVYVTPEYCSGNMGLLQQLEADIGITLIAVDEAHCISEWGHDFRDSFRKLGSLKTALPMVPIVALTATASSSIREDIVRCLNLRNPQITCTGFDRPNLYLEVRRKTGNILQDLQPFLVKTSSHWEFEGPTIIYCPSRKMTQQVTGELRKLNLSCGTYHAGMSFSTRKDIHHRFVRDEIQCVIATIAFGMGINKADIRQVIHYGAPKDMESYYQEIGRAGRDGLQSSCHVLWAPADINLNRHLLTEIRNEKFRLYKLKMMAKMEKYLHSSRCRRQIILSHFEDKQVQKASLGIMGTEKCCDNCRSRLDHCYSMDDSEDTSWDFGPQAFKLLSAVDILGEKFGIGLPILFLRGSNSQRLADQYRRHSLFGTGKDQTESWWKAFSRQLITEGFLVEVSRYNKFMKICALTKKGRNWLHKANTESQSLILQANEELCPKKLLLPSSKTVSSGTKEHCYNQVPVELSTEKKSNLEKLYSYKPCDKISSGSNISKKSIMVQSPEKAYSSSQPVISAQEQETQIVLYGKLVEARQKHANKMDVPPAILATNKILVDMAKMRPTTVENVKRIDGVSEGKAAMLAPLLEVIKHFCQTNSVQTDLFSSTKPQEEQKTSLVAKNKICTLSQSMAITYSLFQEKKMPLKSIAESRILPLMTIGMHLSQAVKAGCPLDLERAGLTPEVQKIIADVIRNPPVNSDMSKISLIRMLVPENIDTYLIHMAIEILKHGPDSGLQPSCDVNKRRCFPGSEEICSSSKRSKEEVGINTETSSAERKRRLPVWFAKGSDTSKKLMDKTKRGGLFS

CCc1c(N2CCN(C(=O)c3ncnc(C)c3O)CC2)c(=O)n2nc(C3=CCOCC3)nc2n1CC(=O)Nc1ccc(C(F)(F)F)c2ccoc12 [Compound H22]
TGI [1]: 104%
Tumor volume (mm^3)-D 1 ([1]; day 1): 162 mm^3
Tumor volume (mm^3)-D 21 ([1]; day 21): 89 mm^3
IC50 (WRN helicase): 1.4 nM
CLint scaled at 1 μM [2]: < 6.8 mL/min/kg
microsomal CLint at 1 μM ([2]; read-out: Human Clint μL/min/mg Protein): < 5.4 µL/min/mg
Papp A→B [3]: 3.2 ×10⁻⁶ cm/s
Papp B→A [3]: 21 ×10⁻⁶ cm/s
IC50 [4]: > 10000 nM
